Measurements taken from patent US20220315908A1, “NOVEL GARDNERELLA ENDOLYSINS AND USES THEREOF” (priority 2019, published 2022).
In brackets after ≈: the same amount, converted by molar mass. Like-named read-outs stand apart in the source and are kept apart here.

How the values were obtained:
G. vaginalis (Gv_9) = assay: MIC and MBC microbroth dilution; type: cell-based, Gardnerella vaginalis; conditions: for MIC / MBC: Gardnerella vaginalis; for MIC: 48 h
Experimental: (§1) One of the main deficiencies in the treatment of BV is the high rate of recurrence in many women, which leads to repeated administration of antibiotics and concomitant destabilization of the microbiome and other side effects. The minimal inhibitory concentration (MIC) and minimal bactericidal concentration (MBC) on Gardnerella cells of the strains also used for the endolysin activity assays were then measured using the method described in Reference Example 6 and 7. […] Essentially, Gardnerella suspensions at 2.5×10^7 CFU/ml were incubated with the concentration of antibiotics as indicated and incubated for 48 h at 37° C. under anaerobic conditions. […] OD(610) was measured at the beginning and the end of the experiment. At the end of the experiment, 2 ul of each reaction mix was spotted on agar to determine the MBC.
(§2) The conditions under which MIC and MBC were measured are more rigorous than the standard.
(§3) Example 7—Activity assays of a representative (H2B10) of domain swapped endolysins on the growth in suspension of different Gardnerella strains. […] The conditions under which MBC was measured are more rigorous than the standard. […] In general, it is known, that antibiotics only insufficiently eradicate the Gardnerella biofilm, a hallmark of BV, which is one suspected reason for the reported very high recurrence rate of BV. Despite leaving residual viable biofilm, antibiotics wipe parts of the beneficial organisms of the vaginal microbiome which then opens an ecological niche for other pathogens, e.g. fungi.
(§4) Bacteria were plated from cryo stock on BD Choc Agar plates (Gardnerella) and incubated at 37° C. for 48 h under anaerobic conditions. Colonies were scraped from the plate, resuspended in Hardy Broth or NYC-III-HS-pH 5.0, and the suspension adjusted to OD (610 or 620 nm as indicated) 0.05. It has to be noted that two Tecan Microplate readers, having respectively a 610 nm or 620 nm filter, have been used interchangeably in the experiments. Although it doesn't make any difference for the experiments, the exact wavelength used is specified in each example. Antibiotics were prepared as 20× stocks for each of the required final concentrations. 95 μl of cell suspension was mixed with 5 μl antibiotics dilution in a 384-well plate. OD (610-620 as indicated) at the start of the reaction was measured, then the plate was incubated at 37° C. for 48 h under anaerobic conditions. After that, the OD (610-620 as indicated) was measured again for MIC determination, where MIC was defined as the lowest concentration of antibiotic where the OD (610-620 as indicated) was not above the level measured at the beginning of the experiment. After measuring OD, 2 μl of each well were spotted on a NYC-III+HS Agar plate. The plates were then incubated for further 48 h at 37° C. under anaerobic conditions. After incubation, cell growth on each spot was evaluated, and the MBC defined as the lowest concentration of antibiotics where no bacteria grew on the plate. The experiments were conducted in triplicate for each condition. In the second round of MIC and MBC experiments with antibiotics the Gardnerella cell suspension was adjusted to the McFarland standard 0.5 (approximately OD (610) 0.07) and then diluted 1:75 according to the CLSI (Clinical and Laboratory Standards Institute) standards. Antibiotics were prepared according to the CLSI standards and 50 μl of cell suspension was mixed in a 96-well plate with 50 μl antibiotics. Otherwise the MIC and MBC was determined as described above.

G. leopoldii (Gv_11) = assay: MIC and MBC microbroth dilution; type: cell-based, Gardnerella leopoldii; conditions: for MIC / MBC: Gardnerella leopoldii; for MIC: 48 h
Experimental: as §1, §2, §3, §4

G. swidsinskii (Gv_23) = assay: MIC and MBC microbroth dilution; type: cell-based, Gardnerella swidsinskii; conditions: for MIC / MBC: Gardnerella swidsinskii; for MIC: 48 h
Experimental: as §1, §2, §3, §4

[1] = test system: all tested Gardnerella strains; assay: MIC and MBC microbroth dilution, stated over all tested strains; type: cell-based; conditions: for MIC: Gardnerella
Experimental: as §1, §2, §3
Bacteria were plated from cryo stock on BD Choc Agar plates (Gardnerella) and incubated at 37° C. for 48 h under anaerobic conditions. Colonies were scraped from the plate, resuspended in Hardy Broth or NYC-III-HS-pH 5.0, and the suspension adjusted to OD (610 or 620 nm as indicated) 0.05. It has to be noted that two Tecan Microplate readers, having respectively a 610 nm or 620 nm filter, have been used interchangeably in the experiments. Although it doesn't make any difference for the experiments, the exact wavelength used is specified in each example. Antibiotics were prepared as 20× stocks for each of the required final concentrations. […] OD (610-620 as indicated) at the start of the reaction was measured, then the plate was incubated at 37° C. for 48 h under anaerobic conditions. After that, the OD (610-620 as indicated) was measured again for MIC determination, where MIC was defined as the lowest concentration of antibiotic where the OD (610-620 as indicated) was not above the level measured at the beginning of the experiment. […] After incubation, cell growth on each spot was evaluated, and the MBC defined as the lowest concentration of antibiotics where no bacteria grew on the plate.

[2] = first round: […]10^7 CFU/ml, Hardy broth, 384-well, 48 h 37° C. anaerobic
[3] = second round: 1×10^5-1×10^6 CFU/ml (CLSI), NYC-III broth, 96-well, 48 h anaerobic
[4] = second round: 1×10^5-1×10^6 CFU/ml (CLSI), NYC-III broth, 96-well
[5] = first round: 2.5×10^7 CFU/ml, minimal concentration fully eradicating the suspension

MIC (G. vaginalis (Gv_9); [2]): 128 µg/mL (≈ 748 µM)
MIC (G. vaginalis (Gv_9); [3]): 8 µg/mL (≈ 46.7 µM)
resistance class of MIC, Metronidazole (G. vaginalis (Gv_9); first round): R (>=32 μg/mi for Metronidazole)
MIC (G. leopoldii (Gv_11); [2]): > 128 µg/mL
MIC (G. leopoldii (Gv_11); [3]): 128 µg/mL (≈ 748 µM)
resistance class of MIC, Metronidazole (G. leopoldii (Gv_11); first round): R (>=32 μg/mi for Metronidazole)
resistance class printed with MIC, Metronidazole (G. leopoldii (Gv_11); second round): R (>=32 μg/mi for Metronidazole)
MIC (G. swidsinskii (Gv_23); [2]): > 128 µg/mL
MIC (G. swidsinskii (Gv_23); [3]): 32 µg/mL (≈ 187 µM)
resistance class of MIC, Metronidazole (G. swidsinskii (Gv_23); first round): R (>=32 μg/mi for Metronidazole)
resistance class printed with MIC, Metronidazole (G. swidsinskii (Gv_23); second round): R (>=32 μg/mi for Metronidazole)
MIC ([1]; 48 h, first round: […]10^7 CFU/ml, 48 h anaerobic (FIG. 14), read-out: MIC over all Gardnerella strains): 64 to 128 µg/mL (≈ 374 to 748 µM)
MIC ([1]; second round: 1×10^5-1×10^6 CFU/ml (FIG. 15), read-out: MIC over all tested Gardnerella strains): 8 to 128 µg/mL (≈ 46.7 to 748 µM)
Structure (SMILES): Cc1ncc([N+](=O)[O-])n1CCO [Metronidazole]
MBC (G. vaginalis (Gv_9); first round: […]10^7 CFU/ml, minimal concentration fully eradicating the suspension): > 128 µg/mL
MBC (G. vaginalis (Gv_9); [4]): 16 µg/mL (≈ 93.5 µM)
resistance class given with MBC, Metronidazole (G. vaginalis (Gv_9); second round): R (>=32 μg/mi for Metronidazole)
MBC (G. leopoldii (Gv_11); [4]): > 128 µg/mL
MBC (G. leopoldii (Gv_11); [5]): > 128 µg/mL
resistance class given with MBC, Metronidazole (G. leopoldii (Gv_11); second round): R (>=32 μg/mi for Metronidazole)
MBC (G. swidsinskii (Gv_23); [4]): > 128 µg/mL
MBC (G. swidsinskii (Gv_23); [5]): > 128 µg/mL
resistance class given with MBC, Metronidazole (G. swidsinskii (Gv_23); second round): R (>=32 μg/mi for Metronidazole)
susceptibility of the Gardnerella strains, in words ([1]; MIC microbroth dilution): resistant
